Read-outs that look alike come from different tables or passages of the source.
How the values were obtained:
[1] = target: T1, Human 11b-HSD1 (Homo sapiens, UniProt P28845); experiment: Inhibition of cortisone-to-cortisol conversion in CHO-K1 cells over-expressing human 11b-HSD1 (HTRF cortisol assay); format: cell-based; conditions: CHO-K1 cells over-expressing human 11b-HSD1, 160 nM cortisone, 3 hours, 37° C.
T1 construct: expressed in transfected cells
Description: (§1) cDNA (human: Accession No. U12978.2; mouse: Accession No. NM_008288.2) coding the full-length amino acid sequence of 11β-HSD1 in a human and a mouse was incorporated into pMSCVpuro (from Clontech. Co. Ltd.), a vector of expressing a mammalian cell for the production of a retrovirus, and the resulting product was introduced into a GP2-293 cell (from Clontech Co. Ltd.), a retrovirus packing cell line together with pVSV-G vector (from Clontech Co. Ltd.) by using a Lipotamine plus reagent (from Invitrogen Co. Ltd.) in accordance with the method set forth in the appendix (by using HTRF cortisol assay kit from Cisbio assays Co., Ltd., catalog No. 62CO2PEB) and stabilized for 48 hours. Thereafter, viruses being obtained from those cells were used to infect CHO-K1 cell (from Korean Cell Line Bank, KCLB No. 10061) and in 24 hours, the cells were treated with 10 μg/ml pumycin (from Sigma Co. Ltd.) for two weeks to produce a stabilized cell system wherein each 11β-HSD1 in humans or in mice was over-expressed. When the cells being maintained, 5 μg/ml of puromycin was put into the medium and used (RPMI (Gibco), 37° C.). • Reference material: The EMBO Journal (2008) 27, 642-653
(§2) The obtained cells with 11b-HSD1 in a human and a mouse being over-expressed were sub-cultured in a 96-well plate with a cell number being 3×10^4 cells per well and stabilized for 24 hours [RPMI (Gibco), at 37° C., as being used in 5 days after thawing]. After a medium as diluted with DMSO including 160 nM of cortisone (from Sigma Co. Ltd.) and a test compound at a different concentration was put into each well in an amount of 200 ul, the well was cultured in a cell cultivator at 37° C. for 3 hours. 10 ul of the cultured solution was put into a 384 well plate and the amount of cortisol as generated was measured using a cortisol kit (from Cisbio international Co. Ltd, HTRF assay) in accordance with the method set forth in the appended manual.
(§3) As a control group, 160 nM of cortisone and 1% of DMSO were put into a corresponding well. The ground value was obtained from a well including only 160 nM of cortisone and 1% of DMSO without cells just like the control group. The calculation for a % inhibition level was made following the manual as appended. • Reference material: The Journal of Steroid Biochemistry and Molecular Biology, Volume 104, Issues 3-5, May 2007, Pages 123-129 • Bioorganic & Medicinal Chemistry Letters Volume 19, Issue 10, 15 May 2009, Pages 2674-2678
(§4) Like the analyzing method as stated above, the efficacy of inhibiting 11b-HSD1 was calculated as IC50 and the results are shown in Table 1: […]

[2] = target: T2, 11b-HSD1 (Mus musculus, UniProt P50172); experiment: Ex vivo PD assay: 11b-HSD1 inhibition in abdominal fat and liver tissue after oral administration to mice; conditions: mouse C57B1/6, oral, vs vehicle group; for inhibition at 10 mg/kg: 2 hr; for inhibition at 20 mg/kg: 6 hr
T2 construct: the tissues in abdominal fat and the liver were obtained; from tissue; host or cells: abdominal fat and liver of C57Bl/6 mice
Experimental: The prepared compound was orally administered to a mouse (C57B1/6, orient 8 week old, about 25 g, male) and in a proper amount of time (2 hours, 6 hours, 12 hours, 16 hours, and 24 hours), the mouse was sacrificed and around 30 to 40 mg of the tissues in abdominal fat and the liver were obtained. To 500 ul of a medium (RPMI, gibco) including 1 μM of cortisone (from Sigma Co. Ltd.) and 400 μM of NADPH (from Sigma Co. Ltd) was added the tissue as obtained (30-40 mg), which then reacted in a cell cultivator at 37° C. for 3 hours. After 50 ul of the reacted solution was taken and diluted with DMEM medium at a volume ratio of 1/10, the amount of cortisol being generated was measured by using a cortisol kit (assay designs Co. Ltd., ELISA kit) in accordance with the method set forth in the appended manual. From the results being measured, the degree of the inhibition was obtained by the conversion in comparison with the vehicle group (vehicle: 5% DMSO+5% cremophor in dw, the amount being proportionate to the body weight, i.e., the administration was made at the same volume as the drug being introduced). • Reference material: Published Aug. 15, 2005//JEM vol. 202 no. 4 517-527 The Rockefeller University Press % inhibition={(the amount of cortisol of the vehicle group−the amount of the cortisol of the group with the compound being administered)/(the amount of cortisol of the vehicle group)}×100
According to the above analyzing method, the efficacy of inhibiting 11b-HSD1 of the test compound in the target organ was calculated as % inhibition values, which are shown in Table 2 and Table 3.

[3] = target: T3, Mouse 11b-HSD1 (Mus musculus, UniProt P50172); experiment: Inhibition of cortisone-to-cortisol conversion in CHO-K1 cells over-expressing mouse 11b-HSD1 (HTRF cortisol assay); format: cell-based; conditions: CHO-K1 cells over-expressing mouse 11b-HSD1, 160 nM cortisone, 3 hours, 37° C.
T3 construct: expressed in transfected cells
Description: as §1, §2, §3, §4

[4] = abdominal fat, read-out: 11b-HSD1 % inhibition in the fat
[5] = liver, read-out: 11b-HSD1 % inhibition in the liver

T1 sequence (P28845 whole entry): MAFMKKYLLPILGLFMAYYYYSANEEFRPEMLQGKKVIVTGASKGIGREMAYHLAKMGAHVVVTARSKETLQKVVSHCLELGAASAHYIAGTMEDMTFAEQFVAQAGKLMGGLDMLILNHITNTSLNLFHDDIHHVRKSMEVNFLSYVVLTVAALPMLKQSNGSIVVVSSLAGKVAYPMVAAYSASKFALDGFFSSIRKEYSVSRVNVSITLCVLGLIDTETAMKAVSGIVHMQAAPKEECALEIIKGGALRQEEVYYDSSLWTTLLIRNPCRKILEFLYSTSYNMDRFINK
T3 sequence (P50172 whole entry): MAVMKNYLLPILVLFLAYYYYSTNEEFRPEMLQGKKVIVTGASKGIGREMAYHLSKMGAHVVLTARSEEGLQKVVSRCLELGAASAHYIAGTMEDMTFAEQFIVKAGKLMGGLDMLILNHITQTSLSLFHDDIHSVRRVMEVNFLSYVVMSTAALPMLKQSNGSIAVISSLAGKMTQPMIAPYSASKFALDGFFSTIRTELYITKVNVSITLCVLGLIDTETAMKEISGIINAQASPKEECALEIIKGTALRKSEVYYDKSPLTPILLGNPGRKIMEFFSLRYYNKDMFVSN
T2 sequence (P50172 whole entry): as above

| Structure (SMILES) | IC50 [1] | inhibition at 10 mg/kg [2, 4] | inhibition at 10 mg/kg [2, 5] | inhibition at 20 mg/kg [2, 4] | inhibition at 20 mg/kg [2, 5] | IC50 [3] |
| --- | --- | --- | --- | --- | --- | --- |
| NC(=O)[C@]12CC3CC(C1)[C@@H](NC(=O)c1ccc(-c4ccc(Cl)cc4)o1)C(C3)C2 [Example 2, N-(5-carbamoyl-2-adamantyl)-5-(4-chlorophenyl)furan-2-carboxamide] | < 100 nM | 84% | 68% | 85% | 44% | 100 to 500 nM |
| NC(=O)[C@]12CC3CC(C1)[C@@H](NC(=O)c1ccc4ccccc4n1)C(C3)C2 [Example 18, N-(5-carbamoyl-2-adamantyl)quinoline-2-carboxamide] | < 100 nM | 58% | 62% | 65% | 61% | < 100 nM |
| NC(=O)[C@]12CC3CC(C1)[C@@H](NC(=O)c1ccc(-c4ccccc4F)o1)C(C3)C2 [Example 30, N-(5-carbamoyl-2-adamantyl)-5-(2-fluorophenyl)furan-2-carboxamide] | < 100 nM | – | – | 72% | 69% | < 100 nM |
| NC(=O)[C@]12CC3CC(C1)[C@@H](NC(=O)c1ccc(-c4ccccc4)o1)C(C3)C2 [Example 1, N-(5-carbamoyl-2-adamantyl)-5-phenylfuran-2-carboxamide] | < 100 nM | 91% | 85% | 83% | 70% | < 100 nM |
| NC(=O)[C@]12CC3CC(C1)[C@@H](NC(=O)c1cccc4cccnc14)C(C3)C2 [Example 19, N-(5-carbamoyl-2-adamantyl)quinoline-8-carboxamide] | < 100 nM | 51% | 50% | – | – | < 100 nM |
| NC(=O)[C@]12CC3CC(C1)[C@@H](NC(=O)c1ccc(-c4ccccc4Cl)s1)C(C3)C2 [Example 43, N-(5-carbamoyl-2-adamantyl)-5-(2-chlorophenyl)thiophene-2-carboxamide] | < 100 nM | – | – | 70% | 59% | < 100 nM |
| Cn1c(C(=O)N[C@H]2C3CC4CC2C[C@](C(N)=O)(C4)C3)ccc1-c1ccccc1F [Example 39, N-(5-carbamoyl-2-adamantyl)-5-(2-fluorophenyl)-1-methylpyrrole-2-carboxamide] | < 100 nM | – | – | 98% | 96% | < 100 nM |
| NC(=O)[C@]12CC3CC(C1)[C@@H](NC(=O)c1ccc(-c4ccccc4)s1)C(C3)C2 [Example 40, N-(5-carbamoyl-2-adamantyl)-5-phenylthiophene-2-carboxamide] | < 100 nM | – | – | 63% | 38% | < 100 nM |
| COc1ccccc1-c1cc(C(=O)N[C@H]2C3CC4CC2C[C@](C(N)=O)(C4)C3)no1 [Example 7, N-(5-carbamoyl-2-adamantyl)-5-(2-methoxyphenyl)-1,2-oxazole-3-carboxamide] | > 500 nM | – | – | – | – | > 500 nM |
| NC(=O)[C@]12CC3CC(C1)[C@@H](NC(=O)c1cccc(N4CCc5ccccc5C4)n1)C(C3)C2 [Example 61, N-(5-carbamoyl-2-adamantyl)6-(3,4-dihydro-1H-isoquinolin-2-yl)pyridine-2-carboxamide] | < 100 nM | – | – | – | – | < 100 nM |
| NC(=O)[C@]12CC3CC(C1)[C@@H](NC(=O)c1cccs1)C(C3)C2 [Example 22, N-(5-carbamoyl-2-adamantyl)thiophene-2-carboxamide] | 100 to 500 nM | – | – | – | – | > 500 nM |
| Cc1csc(C(=O)N[C@H]2C3CC4CC2C[C@](C(N)=O)(C4)C3)c1 [Example 23, N-(5-carbamoyl-2-adamantyl)-4-methylthiophene-2-carboxamide] | 100 to 500 nM | – | – | – | – | 100 to 500 nM |
| CN(C)c1cccc(C(=O)N[C@H]2C3CC4CC2C[C@](C(N)=O)(C4)C3)[n+]1[O-] [Example 65, N-(5-carbamoyl-2-adamantyl)-6-(dimethylamino)-1-oxidopyridin-1-ium-2-carboxamide] | < 100 nM | – | – | – | – | 100 to 500 nM |
| NC(=O)[C@]12CC3CC(C1)[C@@H](NC(=O)c1ccc(-c4cccc(Cl)c4)s1)C(C3)C2 [Example 42, N-(5-carbamoyl-2-adamantyl)-5-(3-chlorophenyl)thiophene-2-carboxamide] | < 100 nM | – | – | – | – | < 100 nM |
| NC(=O)[C@]12CC3CC(C1)[C@@H](NC(=O)c1cccc(N4CCC(c5ccccc5)CC4)n1)C(C3)C2 [Example 62, N-(5-carbamoyl-2-adamantyl)-6-(4-phenylpiperidin-1-yl)pyridine-2-carboxamide] | < 100 nM | – | – | – | – | 100 to 500 nM |
| CN(C)c1cccc(C(=O)N[C@H]2C3CC4CC2C[C@](C(N)=O)(C4)C3)n1 [Example 57, N-(5-carbamoyl-2-adamantyl)-6-(dimethylamino)pyridine-2-carboxamide] | < 100 nM | – | – | – | – | < 100 nM |
| COc1cccc2ccc(C(=O)N[C@H]3C4CC5CC3C[C@](C(N)=O)(C5)C4)nc12 [Example 50, N-(5-carbamoyl-2-adamantyl)-8-methoxyquinoline-2-carboxamide] | < 100 nM | – | – | – | – | 100 to 500 nM |
| Cn1c(C(=O)N[C@H]2C3CC4CC2C[C@](C(N)=O)(C4)C3)ccc1-c1ccc(C(F)(F)F)cc1 [Example 37, N-(5-carbamoyl-2-adamantyl)-1-methyl-5-[4-(trifluoromethyl)phenyl]pyrrole-2-carboxamide] | < 100 nM | – | – | – | – | 100 to 500 nM |
| COc1ccc(-c2ccc(C(=O)N[C@H]3C4CC5CC3C[C@](C(N)=O)(C5)C4)o2)cc1 [Example 28, N-(5-carbamoyl-2-adamantyl)-5-(4-methoxyphenyl)furan-2-carboxamide] | < 100 nM | – | – | – | – | 100 to 500 nM |
| NC(=O)[C@]12CC3CC(C1)[C@@H](NC(=O)c1ccc(-c4ccc(Cl)c(Cl)c4)o1)C(C3)C2 [Example 31, N-(5-carbamoyl-2-adamantyl)-5-(3,4-dichlorophenyl)furan-2-carboxamide] | < 100 nM | – | – | – | – | 100 to 500 nM |
| Cn1cccc1C(=O)N[C@H]1C2CC3CC1C[C@](C(N)=O)(C3)C2 [Example 17, N-(5-carbamoyl-2-adamantyl)-1-methylpyrrole-2-carboxamide] | > 500 nM | – | – | – | – | > 500 nM |
| NC(=O)[C@]12CC3CC(C1)[C@@H](NC(=O)c1ccc(-c4ccc(F)cc4)o1)C(C3)C2 [Example 25, N-(5-carbamoyl-2-adamantyl)-5-(4-fluorophenyl)furan-2-carboxamide] | < 100 nM | – | – | – | – | < 100 nM |

From patent publication US9233957B2, “5-carbamoyl-adamantan-2-yl amide derivatives, pharmaceutically acceptable salts thereof and preparation process thereof” (SK BIOPHARMACEUTICALS CO., LTD., priority 2011, dated 2016)
